Source: article PMC7297445, “Pharmacokinetic/Pharmacodynamic Determination and Preclinical Pharmacokinetics of the β-Lactamase Inhibitor ETX1317 and Its Orally Available Prodrug ETX0282” (ACS Infectious Diseases, 2020)
Where two headings read alike, the source gives them in different places.

Legend:
[1] = Intravenous pharmacokinetics of ETX1317; assay type: in vivo, rat; settings: i.v. 10 mg/kg
Protocol: Intravenous pharmacokinetics of ETX1317 investigated in jugular vein cannulated male Sprague–Dawley rats (Charles River Laboratories, n = 3/route) at a dose of 10 mg/kg formulated in 0.9% saline. Oral pharmacokinetics of ETX0282 was evaluated at a 10 mg/kg equivalent dose of ETX1317 formulated in 25:75 PEG 400:WFI. The pH of each formulation was verified to fall within a range of 4–7 and were confirmed to be in solution prior to dosing. Potency was verified by LC/MS/MS. Dose volumes were 5 and 10 mL/kg for ETX1317(i.v.) and ETX0282(p.o.), respectively for rats. In both dog (male, 3/route) and monkey (male, 3/route) studies, i.v. and p.o. doses were formulated on 25:75 PEG 400:WFI (pH ∼5) and administered at a dose of ∼1 mg/kg. Dose volume was 1 mL/kg for both routes in dogs and monkeys with the i.v. dose infused over 15 min. For oral doses, gavage tubes were flushed with 10 mL after administration of the dose. i.v. doses were sterile-filtered through 0.22 μm PVDF membrane prior to administration into the cephalic vein.
Blood samples to be processed for plasma using K2EDTA as an anticoagulant were taken at 0.08, 0.17, 0.25, 0.5, 1, 2, 4, and 8 h (i.v.) and 0.25, 0.5, 1, 2, 4, 8, and 24 h (p.o.) post dose in rats. Blood samples collected into 0.5 mL BD microtainers containing 1.0 mg K2EDTA were centrifuged in a microfuge for 10 min, plasma pipetted to 96 well cryo tubes, and stored at −80 °C prior to analysis.
Urine collection was collected directly into Nalgene bottles placed under metabolism cages with frozen ice packs to chill urine over the collection interval. Urine was collected 0–12, and 12–24 h post-dose. Following collection of each urine sample, the total urine weight was recorded and 3 mL aliquots were retained for LC/MS/MS analysis.
Non-compartmental analysis of time vs concentration data for ETX1317, ETX0282, CPD, and CPDP was completed using WinNonlin 8.1 (Pharsite Corporation, Mountain View CA). The maximum concentration (Cmax) was the highest observed concentration; Tmax was the earliest time at which Cmax occurred; and the elimination half-life was estimated as ln 2/kel, where kel is the elimination rate constant derived from the slope of the log concentration versus time profile. The area under the concentration–time curve from 0 h to the last time point (AUC0-tlast) was calculated by linear trapezoidal approximation. Clearance (CL) was estimated as Dose/AUC0-tlast and the steady state volume of distribution (Vd,ss) was estimated as CL* MRT, where MRT = AUMC/AUC (MRT = mean residence time and AUMC = area under the moment curve). Oral bioavailability (F) was determined from ETX1317 concentrations and normalizing doses to free acid equivalence, where F = AUCp.o.*(dosei.v.)/AUCi.v.*(dosep.o.).

K. pneumoniae ARC5118 = experiment: Chemostat in vitro infection model, dose fractionation; assay type: cell-based; settings: with CPD
Protocol: (§1) The PK/PD driver of ETX1317 was assessed in the presence of CPD in both hollow-fiber[28]−[31] and chemostat[32]in vitro infection model systems. In all cases, CPD was administered q12h via a 2 h infusion and eliminated with a 2 h half-life, with the concentration of drug exceeding the MIC (the MIC of CPD in the presence of ETX1317 at a 1:2 ratio) for 50% of the dosing interval for each strain. Representative Emax plots are shown graphically for Escherichia coli ARC2687 in the hollow-fiber model and Klebsiella pneumoniae ARC4420 in the chemostat system (Figure 2). […] This could partially be attributed to the distribution of the concentration ranges utilized for the hollow-fiber infection model (HFIM) where most of the data scatter occurred in the efficacious dose range for lower MIC strains. It is important to note that initial evaluation of K. pneumoniae ARC4420 and ARC5118 was completed in the HFIM but rapid degradation of CPD, presumably through accumulation of β-lactamases in the extra-capillary space of the cartridge precluded a reliable assessment of the PK/PD driver with these strains in this model.[32] […] In both the HFIM and chemostat models the optimum critical threshold of ETX1317 was established through iterative Emax fitting of a range of ETX1317 concentrations from 0.5× to 2× the CPD:ETX1317 MIC value. In the HFIM, %Time > ETX1317 CT of 2× MIC provided the highest correlation to observed activity which appeared to be independent to the apparent intrinsic activity of ETX1317 (as reflected by ETX1317 MICBLI of K. pneumoniae ARC4486 vs ARC4488). […] In both models CPD infused alone mimicked vehicle control as expected with similar growth of +2 to 4 log10 CFU/mL.
(§2) Enterobacteriaceae isolates E. coli ARC2687 and K. pneumoniae isolates ARC4486, ARC4488, ARC5118, and ARC4420 were prepared for infection from an overnight plate culture. On the day of the experiment, a few colonies of bacteria were inoculated in Mueller Hinton Broth II (MHBII, Sigma-Aldrich, St. Louis, MO) and incubated at 35 °C until reaching log-phase growth, about 1 h. In hollow-fiber studies cell population density is confirmed by turbidimetric assay (OD600) and final dilution is adjusted to deliver approximately 15 mL of bacteria (1 × 10^6 CFU/mL) to the extra-capillary space of the hollow-fiber cartridge (Fibercell Systems, Inc., Frederick, MD). After 1 h, targeted drug concentrations were introduced using a 2 h infusion via a syringe pump (Harvard Apparatus, Holliston, MA). […]
(§3) Dose range and dose fractionation were performed in hollow-fiber infection model (HFIM) and chemostat (one-compartment) in vitro infection model. […] CPD concentrations were targeted to achieve exposure of ∼50%Time > MIC determined in the presence of ETX1317. […]

K. pneumoniae ARC4420 = experiment: as above; assay type: cell-based; settings: with CPD
Protocol: as §1, §2, §3

[2] = male, Sprague-Dawley, rat, plasma, iv

SMILES: CC1=C[C@@H](C(N)=O)N2C[C@@H]1N(O[C@H](F)C(=O)O)C2=O [ETX1317]
- CL ([1]; 10 mg/kg): 23.1 ± 1.1 mL/min/kg
- clearance ([1]; male, Sprague-Dawley, rat, plasma, iv, 10 mg/kg, read-out: CL): 23 mL/min/kg
- AUC [1, 2]: 7190 ± 340 ng·h/mL
- Cmax [1, 2]: 17500 ± 2000 ng/mL
- half-life [1, 2]: 24 ± 1.2 min
- Vd ([1]; male, Sprague-Dawley, rat, plasma, iv, read-out: Vd,ss): 0.7 ± 0.01 L/kg
- clearance ([1]; male, Sprague-Dawley, rat, urine and plasma, iv, 10 mg/kg, read-out: renal CL): 13.4 ± 0.3 mL/min/kg
- %Time > CT of 1 μg/mL for 1–log10 kill (K. pneumoniae ARC5118): 65%
- %Time > CT of 1 μg/mL for stasis (K. pneumoniae ARC5118): 60%
- %Time > CT of 1 μg/mL for 1–log10 kill (K. pneumoniae ARC4420): 63%
- %Time > CT of 1 μg/mL for stasis (K. pneumoniae ARC4420): 59%
